target: CDK2 (human) (UniProt P24941); assay: Enzyme Assay

IC50, ≤ 1000 nM:
COC[C@H](Cc1ccc(O)cc1)NC(=O)c1cc(NS(=O)(=O)C(C)(C)C)c2cc(-c3cccc(COc4ccccn4)c3)ccc2n1
COC(=O)[C@H](Cc1ccc(O)cc1)NC(=O)c1cc(C(=O)O)c2cc(-c3cccc(C#N)c3)ccc2n1
COC(=O)[C@H](Cc1ccc(O)cc1)NC(=O)c1cc(C(=O)O)c2cc(CCc3ccc(Cl)cc3)ccc2n1
COC(=O)[C@H](Cc1ccc(O)cc1)NC(=O)c1cc(C(=O)O)c2cc(CCc3ccccc3)ccc2n1
COC(=O)[C@H](Cc1ccc(O)cc1)NC(=O)c1cc(C(=O)O)c2cc(-c3cc4ccccc4o3)ccc2n1
COC[C@H](Cc1ccc(O)cc1)NC(=O)c1cc(C(=O)O)c2cc(-c3cccc(C(F)(F)F)c3)ccc2n1
CCCCCC=Cc1ccc2nc(C(=O)N[C@H](COC)Cc3ccc(O)cc3)cc(C(=O)O)c2c1
COC(=O)[C@H](Cc1ccc(O)cc1)NC(=O)c1cc(C(=O)O)c2cc(-c3cccc(C)c3)ccc2n1
COC[C@H](Cc1ccc(O)cc1)NC(=O)c2cc(C(=O)O)c3cc(ccc3n2)c4cccc(CN5=CC(=CC=C5)O)c4
CON=C[C@H](Cc1ccc(O)cc1)NC(=O)c1cc(C(=O)O)c2cc(-c3cccc(C(F)(F)F)c3)ccc2n1
CCCCCC#Cc1ccc2nc(C(=O)N[C@H](COC)Cc3ccc(O)cc3)cc(C(=O)O)c2c1
COC[C@H](Cc1ccc(O)cc1)NC(=O)c1cc(C(=O)O)c2cc(-c3cccc(Cn4ccccc4=O)c3)ccc2n1
COC[C@H](Cc1ccc(O)cc1)NC(=O)c1cc(-c2nnn[nH]2)c2cc(-c3cccc(C(F)(F)F)c3)ccc2n1
COC(=O)[C@H](Cc1ccc(O)cc1)NC(=O)c1cc(C(=O)O)c2cc(-c3ccc(F)c(Cl)c3)ccc2n1
COC(=O)[C@H](Cc1ccc(O)cc1)NC(=O)c1cc(C(=O)O)c2cc(-c3ccc(C)c([N+](=O)[O-])c3)ccc2n1
COC(=O)[C@H](Cc1ccc(O)cc1)NC(=O)c1cc(C(=O)O)c2cc(-c3ccc(F)c(C)c3)ccc2n1
O=C(NC(Cc1ccc(O)cc1)C1CCCCC1)c1cc(C(=O)O)c2cc(-c3cccc(C(F)(F)F)c3)ccc2n1 (stereo not given)
COC(=O)[C@H](Cc1ccc(O)cc1)NC(=O)c1cc(C(=O)O)c2cc(-c3ccc(Cl)c(Cl)c3)ccc2n1
COC(=O)[C@H](Cc1ccc(O)cc1)NC(=O)c1cc(C(=O)O)c2cc(-c3ccc(C(C)C)cc3)ccc2n1
COC(=O)[C@H](Cc1ccc(O)cc1)NC(=O)c1cc(C(=O)O)c2cc(-c3ccc(Cl)cc3)ccc2n1
CN(C)C(=O)[C@H](Cc1ccc(O)cc1)NC(=O)c1cc(C(=O)O)c2cc(C=Cc3ccc(Cl)cc3)ccc2n1
CCCCCCCc1ccc2nc(C(=O)N[C@H](COC)Cc3ccc(O)cc3)cc(C(=O)O)c2c1
CNC(=O)[C@H](Cc1ccc(O)cc1)NC(=O)c1cc(C(=O)O)c2cc(C=Cc3ccc(Cl)cc3)ccc2n1
COC(=O)[C@H](Cc1ccc(O)cc1)NC(=O)c1cc(C(=O)O)c2cc(-c3ccc(OC)cc3)ccc2n1
COC[C@H](Cc1ccc(O)cc1)NC(=O)c1cc(C(=O)O)c2cc(OCc3ccc(C(F)(F)F)cc3)ccc2n1
O=C(N[C@@H](Cc1ccc(O)cc1)C(=O)NC1CC1)c1cc(C(=O)O)c2cc(C=Cc3ccc(Cl)cc3)ccc2n1
COC(=O)[C@H](Cc1ccc(O)cc1)NC(=O)c1cc(C(=O)O)c2cc(CCc3ccc(C(F)(F)F)cc3)ccc2n1
COC(=O)[C@H](Cc1ccc(O)cc1)NC(=O)c1cc(C(=O)O)c2cc(-c3cccc(-c4ccccc4)c3)ccc2n1
COC[C@H](Cc1ccc(O)cc1)NC(=O)c1cc(C(=O)O)c2cc(C=Cc3ccc(Cl)cc3)ccc2n1
COC(=O)[C@H](Cc1ccc(O)cc1)NC(=O)c1cc(C(=O)O)c2cc(-c3cc(C)cc(C)c3)ccc2n1
COC(=O)[C@H](Cc1ccc(O)cc1)NC(=O)c1cc(C(=O)O)c2cc(C=Cc3ccc(F)cc3)ccc2n1
CCCC(Cc1ccc(O)cc1)NC(=O)c1cc(C(=O)O)c2cc(-c3cccc(C(F)(F)F)c3)ccc2n1 (stereo not given)
COC(=O)[C@H](Cc1ccc(O)cc1)NC(=O)c1cc(C(=O)O)c2cc(-c3cccc(C(C)C)c3)ccc2n1
Cc1cnc([C@H](Cc2ccc(O)cc2)NCc2cc(C(=O)O)c3cc(-c4cccc(C(F)(F)F)c4)ccc3n2)o1
COC(=O)[C@H](Cc1ccc(O)cc1)NC(=O)c1cc(C(=O)O)c2cc(-c3ccc(OC(F)(F)F)cc3)ccc2n1
COC(=O)[C@H](Cc1ccc(O)cc1)NC(=O)c1cc(C(=O)O)c2cc(C=Cc3ccc(Cl)cc3)ccc2n1
COC(=O)[C@H](Cc1ccc(O)cc1)NC(=O)c1cc(C(=O)O)c2cc(-c3cc(Cl)cc(Cl)c3)ccc2n1
CCCCCCc1ccc2nc(C(=O)N[C@@H](Cc3ccc(O)cc3)C(=O)OC)cc(C(=O)O)c2c1
COC(=O)[C@H](Cc1ccc(O)cc1)NC(=O)c1cc(C(=O)O)c2cc(CCc3ccc(F)cc3)ccc2n1
COC(=O)[C@H](Cc1ccc(O)cc1)NC(=O)c1cc(C(=O)O)c2cc(-c3ccc(Oc4ccccc4)cc3)ccc2n1
COC(=O)[C@H](Cc1ccc(O)cc1)NC(=O)c1cc(C(=O)O)c2cc(-c3cccs3)ccc2n1
O=C(N[C@@H](Cc1ccc(O)cc1)c1ncc[nH]1)c1cc(C(=O)O)c2cc(-c3cccc(C(F)(F)F)c3)ccc2n1
COC(=O)[C@H](Cc1ccc(O)cc1)NC(=O)c1cc(C(=O)O)c2cc(-c3cc4ccccc4s3)ccc2n1
COC(=O)[C@H](Cc1ccc(O)cc1)NC(=O)c1cc(C(=O)O)c2cc(-c3ccccc3)ccc2n1
COC(=O)[C@H](Cc1ccc(O)cc1)NC(=O)c1cc(C(=O)O)c2cc(-c3ccc(C)s3)ccc2n1
COC(=O)[C@H](Cc1ccc(O)cc1)NC(=O)c1cc(C(=O)O)c2cc(C=CC(C)(C)C)ccc2n1
COC(=O)[C@H](Cc1ccc(O)cc1)NC(=O)c1cc(NS(C)(=O)=O)c2cc(-c3cccc(C(F)(F)F)c3)ccc2n1
COC[C@H](Cc1ccc(O)cc1)NC(=O)c1cc(S(=O)(=O)O)c2cc(-c3cccc(C(F)(F)F)c3)ccc2n1
COC(=O)[C@H](Cc1ccc(O)cc1)NC(=O)c1cc(C(=O)O)c2cc(CCC(C)(C)C)ccc2n1
COC(=O)[C@H](Cc1ccc(O)cc1)NC(=O)c1cc(C(=O)O)c2cc(-c3cccc([N+](=O)[O-])c3)ccc2n1

From the Kinase Knowledgebase extract (Sharma et al. 2016)
